In patent US20140378460A1, “COMPOSITIONS AND METHODS FOR TREATING NEURODEGENERATIVE DISEASE” (COGNITION THERAPEUTICS, INC., priority 2011, published 2014):
Like-named read-outs stand apart in the source and are kept apart here.

Experiments:
[1] = system: Abeta oligomer-induced membrane trafficking deficits in primary hippocampal neurons; assay: Membrane trafficking/exocytosis (MTT) assay; assay type: cell-based, rat
Protocol: The methods used to generate the results were as follows in the Membrane Trafficking/Exocytosis (MTT) assay.
Primary hippocampal neurons from E18 Sprague-Dawley rat embryos were plated at optimized concentrations in 384 well plates in NB media (Invitrogen). Neurons were maintained in cultures for 3 weeks, with twice weekly feeding of NB media with N2 supplement (Invitrogen).
A test compound was added to cells at concentrations ranging from 100 uM to 0.001 nM followed by addition of vehicle or Abeta oligomer preparations (3 μM total Abeta protein concentration), and incubated for 1 to 24 hr at 37° C. in 5% CO2. MTT reagent (3-(4,5-dimethylthizaol-2-yl)-2,5diphenyl tetrazolium bromide) (Roche Molecular Biochemicals) was reconstituted in phosphate buffered saline to 5 mg/mL. 10 μl, of MTT labeling reagent is added to each well and incubated at 37° C. for 1 h, then imaged. Exocytosis was assessed by automated microscopy and image processing to quantify the amount of endocytosed and exocytosed formazan.
Each assay plate was formatted so that compounds are tested with and without Abeta oligomer on each plate.

[2] = system: SKOV-3 human ovarian cancer cell line; assay: MTS tumor cell viability assay; assay type: cell-based; conditions: by EC50 relative to siramesine
Protocol: The cytotoxicity of compounds shown below was determined using the CellTiter96 Aqueous One Solution Assay (Promega, Madison, Wis.). […] The plate was read at 490 nm in a Victor3 plate reader (PerkinElmer Life and Analytical Sciences, Shelton, Conn.). The EC^50 value, defined as the concentration of the sigma ligand required to inhibit cell viability by 50% relative to untreated cells, was determined from the dose response curve for each cell line.

[3] = system: caspase-3 in SKOV-3 human ovarian cancer cells; assay: Caspase-3 activity in tumor cells; assay type: cell-based
[4] = system: caspase-3 in neuronal cultures; assay: Caspase-3 activity in neurons; assay type: cell-based
[5] = system: sigma-2 receptor; conditions: 1 μM each; 18.4 nM [3H]-RHM-1
[6] = target: T1, Sigma-1 receptors (UniProt Q60492); conditions: cited from earlier work
T1 construct: other: known prior art compounds, published studies

[7] = system: Sigma-2 receptors; conditions: cited from earlier work; for Ki: Table 11E, clinical compounds, second figure of S1/S2, read-out: Sigma Affinity (S2)
[8] = system: alpha 1A, 1B; conditions: cited from earlier work
[9] = target: D2 (Homo sapiens, UniProt P14416); conditions: cited from earlier work
Chain of D2 (P14416 whole entry): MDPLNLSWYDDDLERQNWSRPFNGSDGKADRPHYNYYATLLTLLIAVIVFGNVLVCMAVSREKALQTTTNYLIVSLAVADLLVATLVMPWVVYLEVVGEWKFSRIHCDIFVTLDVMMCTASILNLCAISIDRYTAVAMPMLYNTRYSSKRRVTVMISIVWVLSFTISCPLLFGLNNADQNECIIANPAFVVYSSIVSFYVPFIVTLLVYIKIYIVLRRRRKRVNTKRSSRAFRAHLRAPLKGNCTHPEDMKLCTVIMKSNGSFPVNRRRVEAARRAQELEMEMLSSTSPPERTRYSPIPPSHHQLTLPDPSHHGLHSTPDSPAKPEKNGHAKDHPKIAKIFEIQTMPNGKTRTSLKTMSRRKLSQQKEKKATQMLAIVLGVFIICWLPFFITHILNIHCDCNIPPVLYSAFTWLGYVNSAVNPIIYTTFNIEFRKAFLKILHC

[10] = system: neuronal cultures; assay: Neuronal nuclear intensity / morphology; conditions: 24 hours
[11] = system: Sigma-1 receptors; conditions: cited from earlier work; for Ki: Table 11E, clinical compounds, first figure of S1/S2, read-out: Sigma Affinity (S1)
[12] = target: serotonin transporter (Homo sapiens, UniProt P31645); conditions: cited from earlier work
Chain of serotonin transporter (P31645 whole entry): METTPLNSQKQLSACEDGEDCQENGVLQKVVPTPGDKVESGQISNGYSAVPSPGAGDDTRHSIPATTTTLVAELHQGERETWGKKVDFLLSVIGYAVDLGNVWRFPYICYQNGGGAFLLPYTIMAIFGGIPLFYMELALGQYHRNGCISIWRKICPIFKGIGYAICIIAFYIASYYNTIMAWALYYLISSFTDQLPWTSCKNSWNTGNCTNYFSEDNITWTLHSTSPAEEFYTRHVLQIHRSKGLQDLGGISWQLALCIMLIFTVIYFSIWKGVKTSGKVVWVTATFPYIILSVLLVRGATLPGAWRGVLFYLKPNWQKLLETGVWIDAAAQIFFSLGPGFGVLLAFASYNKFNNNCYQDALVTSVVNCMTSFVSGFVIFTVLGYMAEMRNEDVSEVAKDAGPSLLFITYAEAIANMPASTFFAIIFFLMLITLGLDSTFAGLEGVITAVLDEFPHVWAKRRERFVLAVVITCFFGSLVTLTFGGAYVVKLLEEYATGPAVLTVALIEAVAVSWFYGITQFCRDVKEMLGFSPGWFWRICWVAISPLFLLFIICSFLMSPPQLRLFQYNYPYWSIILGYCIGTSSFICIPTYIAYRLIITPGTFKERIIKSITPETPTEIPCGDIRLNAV

[13] = target: Dopamine transporter (Homo sapiens, UniProt Q01959); conditions: cited from earlier work
Chain of Dopamine transporter (Q01959 whole entry): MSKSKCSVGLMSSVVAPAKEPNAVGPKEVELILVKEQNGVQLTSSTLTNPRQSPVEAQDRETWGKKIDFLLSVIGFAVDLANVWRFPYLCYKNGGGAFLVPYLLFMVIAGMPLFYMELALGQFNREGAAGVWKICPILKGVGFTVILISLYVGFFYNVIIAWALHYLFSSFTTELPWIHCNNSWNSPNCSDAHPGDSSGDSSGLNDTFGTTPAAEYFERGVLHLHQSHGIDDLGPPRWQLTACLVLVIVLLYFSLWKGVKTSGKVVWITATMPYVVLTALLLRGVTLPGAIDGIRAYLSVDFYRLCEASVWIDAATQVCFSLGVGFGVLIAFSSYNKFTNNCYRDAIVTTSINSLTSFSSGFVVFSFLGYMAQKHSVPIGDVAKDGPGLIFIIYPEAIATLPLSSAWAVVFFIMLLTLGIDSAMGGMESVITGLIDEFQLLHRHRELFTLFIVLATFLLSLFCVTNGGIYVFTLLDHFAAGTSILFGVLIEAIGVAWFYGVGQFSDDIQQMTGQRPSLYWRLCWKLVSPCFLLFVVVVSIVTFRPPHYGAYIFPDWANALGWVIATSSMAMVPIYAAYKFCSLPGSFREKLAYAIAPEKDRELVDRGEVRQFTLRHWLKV

[14] = target: Adrenergic transporter (Homo sapiens, UniProt P23975); conditions: cited from earlier work
Chain of Adrenergic transporter (P23975 whole entry): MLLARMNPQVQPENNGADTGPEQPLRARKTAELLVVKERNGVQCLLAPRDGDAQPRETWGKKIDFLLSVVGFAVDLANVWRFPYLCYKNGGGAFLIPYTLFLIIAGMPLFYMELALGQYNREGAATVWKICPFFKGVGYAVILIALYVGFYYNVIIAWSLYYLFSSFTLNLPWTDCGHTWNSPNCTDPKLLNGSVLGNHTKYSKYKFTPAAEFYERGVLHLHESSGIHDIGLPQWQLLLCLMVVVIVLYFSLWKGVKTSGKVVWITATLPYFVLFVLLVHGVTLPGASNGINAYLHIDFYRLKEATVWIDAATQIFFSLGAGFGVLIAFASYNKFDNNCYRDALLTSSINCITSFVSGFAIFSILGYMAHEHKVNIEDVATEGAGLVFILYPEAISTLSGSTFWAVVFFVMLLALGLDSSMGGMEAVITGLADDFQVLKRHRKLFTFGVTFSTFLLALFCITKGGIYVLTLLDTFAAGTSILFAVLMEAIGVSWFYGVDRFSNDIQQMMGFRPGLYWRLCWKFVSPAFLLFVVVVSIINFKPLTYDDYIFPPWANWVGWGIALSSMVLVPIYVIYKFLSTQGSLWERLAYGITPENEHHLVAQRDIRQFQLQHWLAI

[15] = target: VAChT (Homo sapiens, UniProt Q16572); conditions: cited from earlier work
Chain of VAChT (Q16572 whole entry, species assumed): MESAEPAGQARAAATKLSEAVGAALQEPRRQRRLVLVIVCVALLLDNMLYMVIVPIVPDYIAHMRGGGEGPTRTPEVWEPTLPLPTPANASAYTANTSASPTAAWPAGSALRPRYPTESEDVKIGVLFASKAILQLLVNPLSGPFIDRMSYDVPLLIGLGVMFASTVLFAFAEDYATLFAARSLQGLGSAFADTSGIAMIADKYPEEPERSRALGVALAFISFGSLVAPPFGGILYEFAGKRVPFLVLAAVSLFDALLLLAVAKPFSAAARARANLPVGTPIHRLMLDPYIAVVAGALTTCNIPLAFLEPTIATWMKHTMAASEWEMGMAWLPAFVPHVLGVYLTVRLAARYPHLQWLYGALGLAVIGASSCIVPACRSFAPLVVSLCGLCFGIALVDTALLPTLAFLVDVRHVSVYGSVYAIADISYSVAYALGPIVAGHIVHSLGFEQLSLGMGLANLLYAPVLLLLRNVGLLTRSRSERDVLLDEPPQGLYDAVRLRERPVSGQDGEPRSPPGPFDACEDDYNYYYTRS

[16] = system: muscarinic M1, 2, D2; conditions: cited from earlier work
[17] = system: alpha1 AR, 5-HT1a/2, H1; conditions: cited from earlier work
[18] = system: 5-HT2A, B, C; conditions: cited from earlier work
[19] = target: NMDAR2B (Homo sapiens, UniProt Q13224); conditions: cited from earlier work
Chain of NMDAR2B (Q13224 27-1484, species assumed, other chains not shown): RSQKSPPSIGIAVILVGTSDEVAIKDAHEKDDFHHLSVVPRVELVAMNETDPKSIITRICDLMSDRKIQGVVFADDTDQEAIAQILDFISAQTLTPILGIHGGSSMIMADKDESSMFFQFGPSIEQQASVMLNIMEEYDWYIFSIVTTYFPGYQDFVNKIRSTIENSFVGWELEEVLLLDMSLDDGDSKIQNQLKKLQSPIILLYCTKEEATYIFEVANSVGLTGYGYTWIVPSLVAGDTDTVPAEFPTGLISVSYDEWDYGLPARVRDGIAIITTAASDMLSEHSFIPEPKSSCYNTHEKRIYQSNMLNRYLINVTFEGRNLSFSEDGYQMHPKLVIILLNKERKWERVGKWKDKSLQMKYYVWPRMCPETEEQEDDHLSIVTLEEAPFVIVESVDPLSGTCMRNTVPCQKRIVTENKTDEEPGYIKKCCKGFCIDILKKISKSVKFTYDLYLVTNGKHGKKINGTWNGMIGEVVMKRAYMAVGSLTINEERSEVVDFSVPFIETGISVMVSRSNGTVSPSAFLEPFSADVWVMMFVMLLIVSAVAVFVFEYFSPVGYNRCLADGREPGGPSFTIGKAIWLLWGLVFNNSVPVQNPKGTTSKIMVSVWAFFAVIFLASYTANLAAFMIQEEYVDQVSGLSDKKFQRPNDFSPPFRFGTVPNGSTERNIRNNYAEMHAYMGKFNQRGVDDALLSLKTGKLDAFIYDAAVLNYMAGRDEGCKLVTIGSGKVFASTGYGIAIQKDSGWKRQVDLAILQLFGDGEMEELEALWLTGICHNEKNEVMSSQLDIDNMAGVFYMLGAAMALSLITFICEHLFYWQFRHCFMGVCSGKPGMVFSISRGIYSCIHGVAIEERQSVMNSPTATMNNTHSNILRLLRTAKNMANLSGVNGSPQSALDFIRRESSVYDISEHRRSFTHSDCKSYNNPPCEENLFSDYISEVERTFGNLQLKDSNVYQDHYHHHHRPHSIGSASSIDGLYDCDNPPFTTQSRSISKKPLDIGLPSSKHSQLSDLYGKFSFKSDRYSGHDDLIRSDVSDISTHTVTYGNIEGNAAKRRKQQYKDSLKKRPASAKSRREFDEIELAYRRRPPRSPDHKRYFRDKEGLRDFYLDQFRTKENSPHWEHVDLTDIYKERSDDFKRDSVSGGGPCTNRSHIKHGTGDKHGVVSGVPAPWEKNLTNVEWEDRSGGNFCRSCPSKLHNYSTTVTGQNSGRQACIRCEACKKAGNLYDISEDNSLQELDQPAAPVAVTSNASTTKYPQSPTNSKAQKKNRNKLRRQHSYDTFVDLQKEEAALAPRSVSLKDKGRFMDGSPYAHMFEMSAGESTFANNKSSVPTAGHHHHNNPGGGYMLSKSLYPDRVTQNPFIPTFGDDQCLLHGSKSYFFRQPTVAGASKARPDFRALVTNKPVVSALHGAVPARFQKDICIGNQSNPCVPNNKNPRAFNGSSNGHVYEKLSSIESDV

[20] = target: NMDAR2A (Homo sapiens, UniProt Q12879); conditions: cited from earlier work
[21] = system: PCP; conditions: cited from earlier work
[22] = target: T2, sigma-2 receptor (Rattus norvegicus, UniProt Q5U3Y7); design: other: known prior art compounds, published studies; conditions: read-out: S2 binding Ki; Table 11C; cited from earlier work
T2 sequence (Q5U3Y7 1-176): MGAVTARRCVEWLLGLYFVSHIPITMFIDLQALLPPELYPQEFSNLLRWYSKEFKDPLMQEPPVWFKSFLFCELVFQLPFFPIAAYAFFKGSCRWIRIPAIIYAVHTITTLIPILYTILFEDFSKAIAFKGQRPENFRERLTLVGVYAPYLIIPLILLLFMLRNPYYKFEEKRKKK

[23] = Rattus norvegicus, Hippocampal neuron, Table 11C, known prior art compounds, read-out: Inhibition Abeta oligomer-induced Membrane Trafficking EC50

**Q.** Which results are given for `Fc1ccc(-n2cc(CCCCN3CCC4(CC3)OCc3ccccc34)c3ccccc32)cc1` [siramesine]?
**A.** Effect on Abeta oligomer trafficking deficits over the concentrations tested [1]: blocks Abeta oligomer trafficking deficits at low concentrations, but causes cellular toxicity at high concentrations; EC50 [1, 23]: 1.3 µM; Functional Neuronal Phenotype ([1]; Table 11C): Agonist; Action [2]: Full agonist; Caspase-3 activity induced in tumor cells [3]: induced caspase-3 activity; Caspase-3 activity induced in neurons [4]: induced; Displacement of [3H]-RHM-1 [5]: partially displace; Ki ([6]; read-out: S1 binding Ki, Table 11C): 19 nM; Ki ([6]; read-out: Sigma 1 Binding Ki, known prior art compounds, published studies): 19 nM; Sigma 2 type of activity ([7]; in brackets after the Ki): agonist; Other Targets: alpha 1A, 1B [8]: 1A, 1B (300 nM); Other Targets: D2 [9]: D2 (800 nM), alpha; Nuclear morphology / nuclear intensity in neurons [10]: caused significant abnormal nuclear morphology

**Q.** Which results are given for `COCCCC/C(=N\OCCN)c1ccc(C(F)(F)F)cc1` [Fluvoxamine, fluvoxamine]?
**A.** EC50 [1, 23]: 2.5 µM; IC50 ([1]; Rattus norvegicus, Hippocampal neuron, Table 11D, read-out: Membrane trafficking IC50): 2500 nM; Functional Neuronal Phenotype ([1]; Table 11C): Antagonist; Functional Neuronal Phenotype ([1]; Table 11D): Antagonist; Ki ([6]; Table 11C, read-out: S1 binding Ki): 13 nM; Ki ([6]; Table 11D, read-out: Sigma-1 Receptor Ki): 13 nM; Ki ([6]; known prior art compounds, published studies, read-out: Sigma 1 Binding Ki): 13 nM; Sigma 1 (Type of Activity) ([11]; known prior art compounds): (agonist); Ki [7]: 710 nM; Other Targets: serotonin transporter [12]: nM), Serotonin (12; Other Targets: Dopamine transporter [13]: transporter (1.5 nM; Other Targets: Adrenergic transporter [14]: transporter (299 nM

**Q.** For `COc1ccc(CCN2CCN(CCCc3ccccc3)CC2)cc1OC.Cl.Cl` [Cutamesine, Cutamesine dihydrochloride], which Ki [11] is on record?
**A.** Its Ki is 17 nM.

**Q.** What about the Ki [7] of the same molecule?
**A.** Its Ki is > 1800 nM.

**Q.** What about the “Other Targets: VAChT” value [15] of the same molecule?
**A.** The value was “VAChT(50 nM),”.

**Q.** What about the “Other Targets: muscarinic M1, 2, D2” value [16] of the same molecule?
**A.** The value was “D2 (2 uM), alpha1”.

**Q.** What about the “Other Targets: alpha1 AR, 5-HT1a/2, H1” value [17] of the same molecule?
**A.** The value was “(2 uM)”.

**Q.** Which Ki [11] does the source give for `OCCN1CCN(CCCN2c3ccccc3C=Cc3ccccc32)CC1` [Opipramol] here?
**A.** The Ki was 7 nM.

**Q.** And the Ki [7]?
**A.** The Ki was 56 nM.

**Q.** What about the “Other Targets: 5-HT2A, B, C” value [18] of the same molecule?
**A.** Its value is 5-HT2A, B, C (120 nM.

**Q.** What about the “Other Targets: alpha 1A, 1B” value [8] of the same molecule?
**A.** Its value is 1A, 1B(200 nM).

**Q.** What does the source list for `CC(C)=CCN1CCC2(C)c3cc(O)ccc3CC1C2C` (centres unmarked) [Pentazocine, pentazocine]?
**A.** EC50 ([1]; Rattus norvegicus, Hippocampal neuron, read-out: Inhibition Abeta oligomer-induced Membrane Trafficking EC50 (uM)): 7.6 µM; Functional Neuronal Phenotype ([1]; Table 11C): Antagonist; Ki [7]: 5000 nM; Other Targets: NMDAR2B [19]: NMDAR2B (2.5 uM; Other Targets: 2A (NMDAR2A) [20]: uM), 2A (2.7 uM),; Other Targets: PCP [21]: PCP (2.9 uM); Ki [22]: > 5000 nM
